Where two headings read alike, the source gives them in different places.
What was measured:
[1] = tested on: MOLM-13 cells; assay: Cell viability assay (CellTiter-Glo) in MOLM-13 cells, alone or with gilteritinib; assay type: cell-based; conditions: Homo sapiens, MOLM-13 cells, CellTiter-Glo
[2] = tested on: MV4;11 cells; assay: Cell viability assay (CellTiter-Glo) in MV4;11 cells, alone or with gilteritinib; assay type: cell-based; conditions: Homo sapiens, MV4;11 cells, CellTiter-Glo, read-out: MV4
[3] = MOLM-13, 72 h, compound alone (without gilteritinib), three days, read-out: MOLM-13 IC50
[4] = MOLM-13, 72 h, compound with gilteritinib 20 nM, three days, read-out: MOLM-13 IC50 gilteritinib
[5] = MV4-11, 72 h, compound alone (without gilteritinib), three days, 11 IC50
[6] = MV4-11, 72 h, compound with gilteritinib 10 nM, three days, 11 IC50 gilteritinib
[7] = MOLM-13, 72 h, with gilteritinib 20 nM, three days, read-out: MOLM-13 IC50 gilteritinib
[8] = MV4-11, 72 h, with gilteritinib 10 nM, three days, 11 IC50 gilteritinib
[9] = MOLM-13, 72 h, with 20 nM gilteritinib, 3 days, read-out: MOLM-13 IC50 gilteritinib
[10] = MOLM-13, 72 h, without gilteritinib, 3 days, read-out: MOLM-13 IC50
[11] = MV4-11, 72 h, with 10 nM gilteritinib, 3 days, 11 IC50 gilteritinib
[12] = MV4-11, 72 h, without gilteritinib, 3 days, 11 IC50

Structure (SMILES) | IC50 [1, 3] | IC50 [2, 5] | IC50 [1, 7] | IC50 [2, 8] | further results
Cc1cccc(-c2cn([C@H]3C[C@H](CNc4ccc5c(c4)C(=O)N(C4CCC(=O)NC4=O)C5=O)C3)nc2C2CC2)n1 (stereo partly drawn) [GS-589, 5-(((trans-3-(3-Cyclopropyl-4-(6-methylpyridin-2-yl)-1H-pyrazol-1-yl)cyclobutyl)methyl)amino)-2-(2,6-dioxopiperidin-3-yl)isoindoline-1,3-dione] | 10 to 100 nM | 10 to 100 nM |  |  | IC50 [1, 4]: < 10 nM; IC50 [2, 6]: < 10 nM
CN1CCCC(c2cn([C@H]3C[C@H](CNc4ccc5c(c4)C(=O)N(C4CCC(=O)NC4=O)C5=O)C3)nc2C2CC2)C1 (stereo partly drawn) [GS-472, 5-(((trans-3-(3-cyclopropyl-4-(1-methylpiperidin-3-yl)-1H-pyrazol-1-yl)cyclobutyl)methyl)amino)-2-(2,6-dioxopiperidin-3-yl)isoindoline-1,3-dione] | > 1000 nM | > 1000 nM |  |  | IC50 [1, 4]: > 1000 nM; IC50 [2, 6]: > 1000 nM
O=C1CCC(N2C(=O)c3ccc(NCCCCCCn4cc(-c5cnc6cccc(N7CCNCC7)c6n5)cn4)cc3C2=O)C(=O)N1 (stereo not shown) [GS-384, 2-(2,6-Dioxopiperidin-3-yl)-5-((6-(4-(8-(piperazin-1-yl)quinoxalin-2-yl)-1H-pyrazol-1-yl)hexyl)amino)isoindoline-1,3-dione] | > 1000 nM | > 1000 nM | > 1000 nM | > 1000 nM | 
Cc1nn([C@H]2C[C@H](CCCNc3ccc4c(c3)C(=O)N(C3CCC(=O)NC3=O)C4=O)C2)cc1-c1cnc2ccc(N3C[C@H]4C[C@@H]3CN4C)cc2n1 (stereo partly drawn) [GS-407, 2-(2,6-dioxopiperidin-3-yl)-5-((3-(trans-3-(3-methyl-4-(7-((1R,4R)-5-methyl-2,5-diazabicyclo[2.2.1]heptan-2-yl)quinoxalin-2-yl)-1H-pyrazol-1-yl)cyclobutyl)propyl)amino)isoindoline-1,3-dione] | > 1000 nM | > 1000 nM | 10 to 100 nM | 100 to 1000 nM | 
O=C1CCC(N2C(=O)c3ccc(NCCCCCCn4cc(-c5cnc6cccc(N7CCOCC7)c6n5)cn4)cc3C2=O)C(=O)N1 (stereo not shown) [GS-381, 2-(2,6-Dioxopiperidin-3-yl)-5-((6-(4-(8-morpholinoquinoxalin-2-yl)-1H-pyrazol-1-yl)hexyl)amino)isoindoline-1,3-dione] | > 1000 nM | > 1000 nM | 10 to 100 nM | 100 to 1000 nM | 
O=C1CCC(N2C(=O)c3ccc(NC[C@H]4C[C@H](n5cc(-c6cccc(NC7CCC7)n6)c(C6CC6)n5)C4)cc3C2=O)C(=O)N1 (stereo partly drawn) [GS-258, 5-(((trans-3-(4-(6-(Cyclobutylamino)pyridin-2-yl)-3-cyclopropyl-1H-pyrazol-1-yl)cyclobutyl)methyl)amino)-2-(2,6-dioxopiperidin-3-yl)isoindoline-1,3-dione] | > 1000 nM | 100 to 1000 nM | 10 to 100 nM | 10 to 100 nM | 
CN(C)c1ccc(-c2cn([C@H]3C[C@H](CNc4ccc5c(c4)C(=O)N(C4CCC(=O)NC4=O)C5=O)C3)nc2C2CC2)nc1 (stereo partly drawn) [GS-276, 5-(((trans-3-(3-Cyclopropyl-4-(5-(dimethylamino)pyridin-2-yl)-1H-pyrazol-1-yl)cyclobutyl)methyl)amino)-2-(2,6-dioxopiperidin-3-yl)isoindoline-1,3-dione] | 100 to 1000 nM | 10 to 100 nM | 10 to 100 nM | < 10 nM | 
O=C1CCC(N2C(=O)c3ccc(NC[C@H]4C[C@H](n5cc(-c6cc7[nH]cnc7cn6)c(C6CC6)n5)C4)cc3C2=O)C(=O)N1 (stereo partly drawn) [GS-307, 5-(((trans-3-(3-Cyclopropyl-4-(1H-imidazo[4,5-c]pyridin-6-yl)-1H-pyrazol-1-yl)cyclobutyl)methyl)amino)-2-(2,6-dioxopiperidin-3-yl)isoindoline-1,3-dione] | 100 to 1000 nM | 100 to 1000 nM | 10 to 100 nM | 10 to 100 nM | 
O=C1CCC(N2C(=O)c3ccc(NCCCCCC(=O)N4CCC(c5ncccn5)CC4)cc3C2=O)C(=O)N1 (stereo not shown) [GS-014, 2-(2,6-Dioxopiperidin-3-yl)-5-((6-oxo-6-(4-(pyrimidin-2-yl)piperidin-1-yl)hexyl)amino)isoindoline-1,3-dione] |  |  |  |  | IC50 [1, 9]: 10 nM; IC50 [1, 10]: 107 nM; IC50 [2, 11]: 8.3 nM; IC50 [2, 12]: 71 nM
CCc1cccc(-c2cn([C@H]3C[C@H](CNc4ccc5c(c4)C(=O)N(C4CCC(=O)NC4=O)C5=O)C3)nc2C2CC2)n1 (stereo partly drawn) [GS-069, 5-(((trans-3-(3-Cyclopropyl-4-(6-ethylpyridin-2-yl)-1H-pyrazol-1-yl)cyclobutyl)methyl)amino)-2-(2,6-dioxopiperidin-3-yl)isoindoline-1,3-dione] | 100 to 1000 nM | 10 to 100 nM | 10 to 100 nM | < 10 nM | 
O=C1CCC(N2Cc3cc(CNC(=O)C(F)(F)c4cccc(N5CCC(n6cc(-c7cnc8cccc(Br)c8n7)cn6)CC5)c4)ccc3C2=O)C(=O)N1 (stereo not shown) [GS-004, 2-(3-(4-(4-(8-bromoquinoxalin-2-yl)-1H-pyrazol-1-yl)piperidin-1-yl)phenyl)-N-((2-(2,6-dioxopiperidin-3-yl)-1-oxoisoindolin-5-yl)methyl)-2,2-difluoroacetamide] |  |  |  |  | IC50 [1, 9]: 0.2 nM; IC50 [1, 10]: 2.1 nM; IC50 [2, 11]: 0.5 nM; IC50 [2, 12]: 1.3 nM
O=C1CCC(N2Cc3ccc(CCCCCC(=O)N4CCN(c5ccccn5)CC4)cc3C2=O)C(=O)N1 (stereo not shown) [GS-103, 3-(1-Oxo-6-(6-oxo-6-(4-(pyridin-2-yl)piperazin-1-yl)hexyl)isoindolin-2-yl)piperidine-2,6-dione] |  |  |  |  | IC50 ([1]; 72 h, compound alone (without gilteritinib), three days, read-out: MOLM-13 IC50): > 1000 nM; IC50 ([1]; 72 h, with gilteritinib 20 nM, three days, read-out: MOLM-13 IC50 gilteritinib): 100 to 1000 nM; IC50 ([2]; 72 h, compound alone (without gilteritinib), three days, 11 IC50): > 1000 nM; IC50 ([2]; 72 h, with gilteritinib 10 nM, three days, 11 IC50 gilteritinib): 100 to 1000 nM
O=C1CCC(N2C(=O)c3ccc(NCCCCCC(=O)N4CCC(c5cnc6ccccc6c5)CC4)cc3C2=O)C(=O)N1 (stereo not shown) [GS-481, 2-(2,6-dioxopiperidin-3-yl)-5-((6-oxo-6-(4-(quinolin-3-yl)piperidin-1-yl)hexyl)amino)isoindoline-1,3-dione] | 10 to 100 nM | < 10 nM |  |  | IC50 [1, 4]: < 10 nM; IC50 [2, 6]: < 10 nM

Second part, led by results:

IC50 [1, 3] | IC50 [2, 5] | IC50 [1, 7] | IC50 [2, 8] | Structure (SMILES) | further results
> 1000 nM | < 10 nM | 100 to 1000 nM | 100 to 1000 nM | O=C1CCC(N2C(=O)c3ccc(NCCC[C@H]4C[C@H](n5cc(-c6cnccn6)cn5)C4)cc3C2=O)C(=O)N1 (stereo partly drawn) [GS-235, 2-(2,6-Dioxopiperidin-3-yl)-5-((3-(trans-3-(4-(pyrazin-2-yl)-1H-pyrazol-1-yl)cyclobutyl)propyl)amino)isoindoline-1,3-dione] | 
> 1000 nM | 10 to 100 nM | > 1000 nM | 100 to 1000 nM | O=C1CCC(N2Cc3cc(NCCCC4CC(n5cc(-c6cnc7ccccc7n6)cn5)C4)ccc3C2=O)C(=O)N1 (stereo not shown) [GS-140, 3-(1-Oxo-5-((3-(3-(4-(quinoxalin-2-yl)-1H-pyrazol-1-yl)cyclobutyl)propyl)amino)isoindolin-2-yl)piperidine-2,6-dione] | 
> 1000 nM | > 1000 nM | 100 to 1000 nM | 100 to 1000 nM | O=C1CCC(N2C(=O)c3ccc(NCCCC4CCCC(n5cc(-c6cnc7ccccc7n6)cn5)C4)cc3C2=O)C(=O)N1 (stereo not shown) [GS-112, 2-(2,6-Dioxopiperidin-3-yl)-5-((3-(3-(4-(quinoxalin-2-yl)-1H-pyrazol-1-yl)cyclohexyl)propyl)amino)isoindoline-1,3-dione] | 
> 1000 nM | > 1000 nM | 10 to 100 nM | 100 to 1000 nM | O=C1CCC(N2C(=O)c3ccc(NCCC[C@H]4C[C@H](n5cc(-c6cccc(NC7CCOCC7)n6)cn5)C4)cc3C2=O)C(=O)N1 (stereo partly drawn) [GS-222, 2-(2,6-Dioxopiperidin-3-yl)-5-((3-(trans-3-(4-(6-((tetrahydro-2H-pyran-4-yl)amino)pyridin-2-yl)-1H-pyrazol-1-yl)cyclobutyl)propyl)amino)isoindoline-3-dione] | 
100 to 1000 nM | 100 to 1000 nM | < 10 nM | < 10 nM | O=C1CCC(N2C(=O)c3ccc(NCCC[C@H]4C[C@H](n5cc(-c6cnc7ccc(N8CCNCC8)cc7n6)cn5)C4)cc3C2=O)C(=O)N1 (stereo partly drawn) [GS-195, 2-(2,6-Dioxopiperidin-3-yl)-5-((3-(trans-3-(4-(7-(piperazin-1-yl)quinoxalin-2-yl)-1H-pyrazol-1-yl)cyclobutyl)propyl)amino)isoindoline-1,3-dione] | 
> 1000 nM | > 1000 nM | > 1000 nM | > 1000 nM | O=C1CCC(N2C(=O)c3ccc(N4CC(CCCCn5cc(-c6cnc7ccccc7n6)cn5)C4)cc3C2=O)C(=O)N1 (stereo not shown) [GS-367, 2-(2,6-Dioxopiperidin-3-yl)-5-(3-(4-(4-(quinoxalin-2-yl)-1H-pyrazol-1-yl)butyl)azetidin-1-yl)isoindoline-1,3-dione] | 

From patent publication US20240050428A1 (Cullgen (Shanghai), Inc., priority 2020, published 2024)
